Data on 22 compounds can be found in US11655235B2, “Pyrrolidine and piperidine compounds” (YUHAN CORPORATION, priority 2019, dated 2023).

One assay concerns the target DPP4 (Homo sapiens, UniProt P27487). The experiment in a line: DPP4 inhibition, fluorogenic substrate H-Gly-Pro-AMC. The format is biochemical. The arrangement: purchased R&D Systems. To be noted: for inhibition at 1 µM: read-out: hDPP4 inhibition % at 1 μM; for IC50: recombinant human DPP4.
Another assay has as its target T1, Recombinant human FAP (Homo sapiens, UniProt Q12884).
T1 construct: purchased R&D systems
T1 sequence (Q12884 1-760): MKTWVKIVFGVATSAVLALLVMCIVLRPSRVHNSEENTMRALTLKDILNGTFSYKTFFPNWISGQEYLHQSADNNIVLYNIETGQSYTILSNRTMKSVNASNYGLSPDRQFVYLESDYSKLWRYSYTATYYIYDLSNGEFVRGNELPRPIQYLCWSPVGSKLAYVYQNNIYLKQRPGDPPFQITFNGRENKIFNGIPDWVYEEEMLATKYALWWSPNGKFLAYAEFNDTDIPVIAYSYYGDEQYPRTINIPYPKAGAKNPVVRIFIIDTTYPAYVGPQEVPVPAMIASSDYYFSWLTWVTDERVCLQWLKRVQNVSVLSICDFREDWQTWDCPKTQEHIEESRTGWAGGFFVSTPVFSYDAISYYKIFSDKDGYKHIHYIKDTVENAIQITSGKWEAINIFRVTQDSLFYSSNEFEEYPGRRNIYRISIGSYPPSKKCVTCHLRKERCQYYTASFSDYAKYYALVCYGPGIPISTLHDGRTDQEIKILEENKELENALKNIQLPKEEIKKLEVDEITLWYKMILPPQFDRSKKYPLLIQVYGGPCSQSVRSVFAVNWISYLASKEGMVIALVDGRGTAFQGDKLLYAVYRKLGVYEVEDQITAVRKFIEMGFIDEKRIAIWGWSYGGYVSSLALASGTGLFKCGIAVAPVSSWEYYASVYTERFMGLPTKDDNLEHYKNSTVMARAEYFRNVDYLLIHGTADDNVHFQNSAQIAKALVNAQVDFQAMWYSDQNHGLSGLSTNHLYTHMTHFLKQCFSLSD
The assay is described as follows: FAP inhibition, fluorogenic substrate Z-Gly-Pro-AMC. The class given is biochemical. The settings on record: for inhibition at 1 µM: read-out: hFAP inhibition % at 1 μM. The gist of the method:
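Eight-point compound dilutions (≤0.1% DMSO) were incubated at 25° C with 10 ng recombinant human FAP in Tris pH 7.5/1 M NaCl/BSA buffer and Z-Gly-Pro-AMC. Inhibition was taken as % drop in fluorescence rate (380/460 nm) against uninhibited control; IC50 came from a four-parameter logistic fit.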

Where [1] appears, read: 25° C., Z-Gly-Pro-AMC substrate.
The mark [2] stands for this setting: recombinant human FAP, substrate Z-Gly-Pro-AMC.

Chain of DPP4 (P27487 whole entry): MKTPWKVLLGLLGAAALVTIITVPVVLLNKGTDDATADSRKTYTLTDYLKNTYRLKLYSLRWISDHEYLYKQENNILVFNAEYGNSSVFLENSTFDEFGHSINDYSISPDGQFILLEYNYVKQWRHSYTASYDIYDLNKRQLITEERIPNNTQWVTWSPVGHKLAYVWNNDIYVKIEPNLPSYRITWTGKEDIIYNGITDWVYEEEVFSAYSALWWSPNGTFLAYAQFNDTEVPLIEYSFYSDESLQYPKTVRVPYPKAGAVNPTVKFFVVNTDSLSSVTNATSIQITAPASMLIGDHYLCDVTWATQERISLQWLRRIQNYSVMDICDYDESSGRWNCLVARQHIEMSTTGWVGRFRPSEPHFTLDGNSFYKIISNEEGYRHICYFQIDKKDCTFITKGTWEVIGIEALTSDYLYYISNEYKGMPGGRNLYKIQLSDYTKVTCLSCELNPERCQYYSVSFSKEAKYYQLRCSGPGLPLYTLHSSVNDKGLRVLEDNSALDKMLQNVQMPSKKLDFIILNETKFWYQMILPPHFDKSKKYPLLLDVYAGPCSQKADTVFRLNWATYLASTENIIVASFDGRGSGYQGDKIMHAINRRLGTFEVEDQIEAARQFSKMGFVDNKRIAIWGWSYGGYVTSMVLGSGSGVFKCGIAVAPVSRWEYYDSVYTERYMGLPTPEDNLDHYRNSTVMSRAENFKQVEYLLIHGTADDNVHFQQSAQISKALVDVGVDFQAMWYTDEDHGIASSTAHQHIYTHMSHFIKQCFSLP

Consider `N#C[C@@H]1CCCN1C(=O)CN1CC[C@H](Oc2ccccc2Cc2ccccc2)C1` [Example 90, (S)-1-(2-((S)-3-(2-benzylphenoxy)pyrrolidin-1-yl)acetyl)pyrrolidine-2-carbonitrile], for which the figures for the inhibition at 1 µM at DPP4 and on Recombinant human FAP were 7.7% and 52.9%, respectively.

In the case of `N#C[C@@H]1C[C@@H]2C[C@@H]2N1C(=O)CN1CCC(Nc2ccnc3ccccc23)CC1` [Example 112, (1S,3S,5S)-2-(2-(4-(quinolin-4-ylamino)piperidin-1-yl)acetyl)-2-azabicyclo[3.1.0]hexane-3-carbonitrile], the “hDPP4 inhibition % at 1 μM” value at DPP4 is “No inhibition**”. The IC50 (in general, the concentration that inhibits the measured activity by half) on Recombinant human FAP (setting [1]) is 18.8 nM.

As for `N#C[C@@H]1CCCN1C(=O)CN1CC[C@H](Oc2cccc3cc4ccccc4nc23)C1` [Example 96, (S)-1-(2-((S)-3-(acridin-4-yloxy)pyrrolidin-1-yl)acetyl)pyrrolidine-2-carbonitrile], on DPP4, the inhibition (as a rule, the percentage by which the read-out fell short of the control) at 1 µM came to 11.5%. The concentration for half-maximal inhibition (IC50) at Recombinant human FAP (setting [1]) is 270 nM.

Consider `N#C[C@@H]1CCCN1C(=O)CN1CC[C@H](Oc2ccccc2C(=O)Nc2ccccc2)C1` [Example 99, 2-(((S)-1-(2-((S)-2-cyanopyrrolidin-1-yl)-2-oxoethyl)pyrrolidin-3-yl)oxy)-N-phenylbenzamide], for which the figures for the inhibition at 1 µM at DPP4 and on Recombinant human FAP were 10.9% and 18.2%, respectively.

Regarding `N#C[C@@H]1CCCN1C(=O)CN1CC[C@H](C(=O)Nc2ccnc3ccccc23)C1` [Example 4, (S)-1-(2-((S)-2-cyanopyrrolidin-1-yl)-2-oxoethyl)-N-(quinolin-4-yl)pyrrolidine-3-carboxamide], on DPP4, the inhibition at 1 µM was 15.1%. In addition, the IC50 at Recombinant human FAP (setting [1]) is 99.2 nM.

`N#C[C@@H]1CCCN1C(=O)CN1CC[C@H](Oc2cccc3ccccc23)C1` [Example 62, (S)-1-(2-((S)-3-(naphthalen-1-yloxy)pyrrolidin-1-yl)acetyl)pyrrolidine-2-carbonitrile]: the “hDPP4 inhibition % at 1 μM” value at DPP4 is reported as “No inhibition**”. Further, at Recombinant human FAP (setting [1]), the 50% inhibitory concentration (IC50) is 75.1 nM.

Regarding `N#C[C@@H]1CCCN1C(=O)CN1CC[C@@H](Nc2cccc(-c3ccccc3)c2)C1` [Example 18, (S)-1-(2-((R)-3-([1,1′-biphenyl]-3-ylamino)pyrrolidin-1-yl)acetyl)pyrrolidine-2-carbonitrile], at DPP4, the “hDPP4 inhibition % at 1 μM” value is “No inhibition**”. Also, the concentration for half-maximal inhibition (IC50) at Recombinant human FAP (setting [1]) was 25.3 nM.

Consider `CN(c1ccc2ccccc2n1)C1CCN(CC(=O)N2CCC[C@H]2C#N)CC1` [Example 307, (2S)-1-[2-[4-[methyl(2-quinolyl)amino]-1-piperidyl]acetyl]pyrrolidine-2-carbonitrile], for which the half-inhibitory concentration (IC50) at DPP4 was more than 10 µM; at Recombinant human FAP (setting [2]) it was 47.1 nM.

With `N#C[C@@H]1CCCN1C(=O)CN1CC[C@@H](C(=O)Nc2ccnc3ccccc23)C1` [Example 2, (R)-1-(2-((S)-2-cyanopyrrolidin-1-yl)-2-oxoethyl)-N-(quinolin-4-yl)pyrrolidine-3-carboxamide], the inhibition at 1 µM on DPP4 came to 14.6%. Moreover, the IC50 at Recombinant human FAP (setting [1]) is 84.5 nM.

In the case of `CN(c1cccc2ncccc12)C1CCN(CC(=O)N2CCC[C@H]2C#N)CC1` [Example 309, (2S)-1-[2-[4-[methyl(5-quinolyl)amino]-1-piperidyl]acetyl]pyrrolidine-2-carbonitrile], the figures for the 50% inhibitory concentration (IC50) on DPP4 and on Recombinant human FAP (setting [2]) were more than 10 µM and 68.3 nM, respectively.

`N#C[C@@H]1CCCN1C(=O)CN1CC[C@@H](Nc2cccc3ccsc23)C1` [Example 25, (S)-1-(2-((R)-3-(benzo[b]thiophen-7-ylamino)pyrrolidin-1-yl)acetyl)pyrrolidine-2-carbonitrile]: the inhibition at 1 µM at DPP4 came to 2.9%. Also, at Recombinant human FAP (setting [1]), the IC50 amounted to 57.6 nM.

For `N#C[C@@H]1CCCN1C(=O)CN1CC[C@H](Oc2ccc(Cl)c3ccccc23)C1` [Example 71, (S)-1-(2-((S)-3-((4-chloronaphthalen-1-yl)oxy)pyrrolidin-1-yl)acetyl)pyrrolidine-2-carbonitrile], the “hDPP4 inhibition % at 1 μM” value on DPP4 is given as “No inhibition**”. Further, the IC50 at Recombinant human FAP (setting [1]) was determined as 42.6 nM.

`Cc1cccc2c(C(=O)N[C@H]3CCN(CC(=O)N4CCC[C@H]4C#N)C3)coc12` [Example 45, N—((S)-1-(2-((S)-2-cyanopyrrolidin-1-yl)-2-oxoethyl)pyrrolidin-3-yl)-7-methylbenzofuran-3-carboxamide]: at DPP4, the inhibition at 1 µM was 1.2%. On Recombinant human FAP (setting [1]), the IC50 came out at 30.1 nM.

With `CN(c1cncc2ccoc12)C1CCN(CC(=O)N2CCC[C@H]2C#N)CC1` [Example 312, (2S)-1-[2-[4-[furo[3,2-c]pyridin-7-yl(methyl)amino]-1-piperidyl]acetyl]pyrrolidine-2-carbonitrile], the IC50 is more than 10 µM at DPP4 and 31.8 nM on Recombinant human FAP (setting [2]).

Regarding `N#C[C@@H]1CCCN1C(=O)CN1CC[C@H](Oc2cccc(C(=O)c3ccccc3)c2)C1` [Example 91, (S)-1-(2-((S)-3-(3-benzoylphenoxy)pyrrolidin-1-yl)acetyl)pyrrolidine-2-carbonitrile], the inhibition at 1 µM on DPP4 is 9.1%; on Recombinant human FAP, 59.2%.

In the case of `N#C[C@@H]1CCCN1C(=O)CN1CC[C@H](NC(=O)c2ccc3occc3c2)C1` [Example 56, N—((S)-1-(2-((S)-2-cyanopyrrolidin-1-yl)-2-oxoethyl)pyrrolidin-3-yl)benzofuran-5-carboxamide], the inhibition at 1 µM at DPP4 was 2.4%. Besides, at Recombinant human FAP (setting [1]), the IC50 was 45.2 nM.

For the compound `N#C[C@@H]1C[C@H](F)CN1C(=O)CN1CCC(Nc2cccc3ncc(Cl)cc23)CC1` [Example 333, (2S,4S)-1-[2-[4-[(3-chloro-5-quinolyl)amino]-1-piperidyl]acetyl]-4-fluoro-pyrrolidine-2-carbonitrile], the IC50 at DPP4 was found to be 7.54 µM; on Recombinant human FAP (setting [2]), 2.6 nM.

`N#C[C@@H]1CCCN1C(=O)CN1CC[C@H](NC(=O)c2cccc3cccnc23)C1` [Example 34, N—((S)-1-(2-((S)-2-cyanopyrrolidin-1-yl)-2-oxoethyl)pyrrolidin-3-yl)quinoline-8-carboxamide]: at DPP4, the “hDPP4 inhibition % at 1 μM” value was “No inhibition**”. For the same compound, at Recombinant human FAP (setting [1]), the concentration for half-maximal inhibition (IC50) is 191 nM.

Take `N#C[C@@H]1CCCN1C(=O)CN1CC[C@H](Oc2cc3ccccc3cn2)C1` [Example 69, (S)-1-(2-((S)-3-(isoquinolin-3-yloxy)pyrrolidin-1-yl)acetyl)pyrrolidine-2-carbonitrile]: at DPP4, the inhibition at 1 µM came to 8%. In addition, at Recombinant human FAP (setting [1]), the 50% inhibitory concentration (IC50) was found to be 64.3 nM.

Regarding `Cc1ccc2cccc(O[C@H]3CCN(CC(=O)N4CCC[C@H]4C#N)C3)c2n1` [Example 78, (S)-1-(2-((S)-3-((2-methylquinolin-8-yl)oxy)pyrrolidin-1-yl)acetyl)pyrrolidine-2-carbonitrile], the “hDPP4 inhibition % at 1 μM” value on DPP4 is recorded as “No inhibition**”. For the same compound, on Recombinant human FAP (setting [1]), the IC50 turned out to be 22.5 nM.

In the case of `N#C[C@@H]1CCCN1C(=O)CN1CC[C@H](Oc2ccnc3cc(C(F)(F)F)ccc23)C1` [Example 94, (S)-1-(2-((S)-3-((7-(trifluoromethyl)quinolin-4-yl)oxy)pyrrolidin-1-yl)acetyl)pyrrolidine-2-carbonitrile], on DPP4, the inhibition at 1 µM was 6.9%. Further, the 50% inhibitory concentration (IC50) at Recombinant human FAP (setting [1]) was 63.3 nM.

For `N#C[C@@H]1CCCN1C(=O)CN1CC[C@H](NC(=O)c2cccc3ncccc23)C1` [Example 32, N—((S)-1-(2-((S)-2-cyanopyrrolidin-1-yl)-2-oxoethyl)pyrrolidin-3-yl)quinoline-5-carboxamide], on DPP4, the inhibition at 1 µM came to 2%. The IC50 on Recombinant human FAP (setting [1]) amounted to 70.4 nM.
